Laboratory results taken from patent EP0434364A2, “Benzodiazepine analogs for treating panic syndrome and for directly inducing analgesia” (MERCK & CO. INC., priority 1989, dated 1991).
Like-named read-outs stand apart in the source and are kept apart here. Ends that are not written are not given here.

Key:
CCK Receptor (Pancreas) = biological target: T1, CCK Receptor (Pancreas) (Rattus norvegicus, UniProt P30551); assay: CCK Receptor Binding (Pancreas), inhibition of 125I-CCK-33 binding; design: species or system Sprague-Dawley rats
T1 construct: The whole pancreas was dissected free of fat tissue and was homogenized; from tissue; host or cells: rat whole pancreas membranes
T1 sequence (P30551 1-444): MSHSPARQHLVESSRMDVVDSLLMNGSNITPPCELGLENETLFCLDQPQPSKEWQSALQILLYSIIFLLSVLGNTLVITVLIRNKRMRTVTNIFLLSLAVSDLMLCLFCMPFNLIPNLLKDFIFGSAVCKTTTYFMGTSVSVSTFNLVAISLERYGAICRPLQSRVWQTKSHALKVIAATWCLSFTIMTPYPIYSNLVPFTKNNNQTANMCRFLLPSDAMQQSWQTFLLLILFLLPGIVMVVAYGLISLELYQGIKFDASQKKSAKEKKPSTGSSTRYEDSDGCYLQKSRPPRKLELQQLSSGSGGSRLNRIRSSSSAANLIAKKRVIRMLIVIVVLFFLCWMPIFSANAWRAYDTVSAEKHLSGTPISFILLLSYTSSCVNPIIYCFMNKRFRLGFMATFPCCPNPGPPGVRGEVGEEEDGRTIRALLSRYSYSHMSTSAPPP
Description: CCK-33 was radiolabeled with ¹²⁵I-Bolton Hunter reagent (2000 Ci/mmole) as described by Sankara et al. (J. Biol. Chem. 254: 9349-9351, 1979). Receptor binding was performed according to Innis and Snyder (Proc. Natl. Acad. Sci. 77, 6917-6921, 1980) with the minor modification of adding the additional protease inhibitors, phenylmethane sulfonyl fluoride and o-phenanthroline.
Male Sprague-Dawley rats (200-350g) were sacrificed by decapitation. The whole pancreas was dissected free of fat tissue and was homogenized in 20 volumes of ice-cold 50 mM Tris HCI (pH 7.7 at 25°C) with a Brinkmann Polytron PT 10. The homogenates were centrifuged at 48,000 g for 10 min. Pellets were resuspended in Tris Buffer, centrifuged as above and resuspended in 200 volumes of binding assay buffer (50 mM Tris HCI, pH 7.7 at 25°C, 5 mM dithiothrietol, 0.1 mM bacitracin, 1.2 mM phenylmethane sulfonyl fluoride and 0.5 mM o-phenanthroline). […] All assays were run in duplicate or triplicate. The reaction mixtures were incubated at 37°C for 30 minutes and centrifuged in a Beckman Microfuge (4 minutes) immediately after adding 1 ml of ice-cold incubation buffer. The supernatant was aspirated and discarded, pellets were counted with a Beckman gamma 5000. For Scatchard analysis (Ann. N.Y. Acad. Sci. 51: 660, 1949), ¹²⁵I-CCK-33 was progressively diluted with increasing concentrations of CCK-33.

Gastrin Receptor = biological target: T2, Gastrin Receptor (Cavia porcellus, UniProt H0VZC5); assay: Gastrin Receptor Binding in Guinea Pig Gastric Glands (125I-gastrin)
T2 construct: The washed guinea pig gastric glands prepared as above were resuspended; from tissue; host or cells: guinea pig gastric mucosal glands (intact glands after collagenase)
T2 sequence (H0VZC5 1-426): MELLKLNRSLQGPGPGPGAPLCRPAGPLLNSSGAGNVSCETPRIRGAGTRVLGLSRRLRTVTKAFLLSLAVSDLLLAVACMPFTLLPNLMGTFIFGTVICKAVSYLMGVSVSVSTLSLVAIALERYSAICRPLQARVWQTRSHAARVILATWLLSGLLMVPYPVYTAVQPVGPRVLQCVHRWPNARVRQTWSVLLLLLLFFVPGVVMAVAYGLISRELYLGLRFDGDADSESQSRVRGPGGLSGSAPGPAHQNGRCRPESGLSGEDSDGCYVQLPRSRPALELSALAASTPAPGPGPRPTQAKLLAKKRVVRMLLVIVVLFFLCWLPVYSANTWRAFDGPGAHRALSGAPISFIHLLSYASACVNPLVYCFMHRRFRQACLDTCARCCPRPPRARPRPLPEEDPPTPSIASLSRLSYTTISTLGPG

DBA2 mice = assay: Black/white exploration test (animal model of anxiety); format: in vivo; settings: for active dose range / difference in time spent in the black and white side / preference for rearing in the black side: mice; for active dose range: black/white exploration test
Description: The black/white exploration test [Crawley et al. Pharmacology, Biochemistry and Behav. 13, 167 (1980)] is a simple animal model of anxiety. Rodents placed in a two compartment box which consists of a brightly lit, white painted side and a dimly lit, black painted side, display a marked preference for the black side of the apparatus. This behavior is caused by the aversive properties of the brightly lit, white painted section. Classical anxiolytic drugs [such as diazepam, see Crawley, supra] and novel anxiolytic drugs [such as 5HT₃ antagonists, see Jones et al. Br. J. Pharm. 93, 985 (1988)] decrease the preference of the animal for the black dimly lit side of the apparatus.
A. Naive male DBA2 mice (25-30) were housed on a reversed light/dark cycle and tested during the dark phase of the cycle under dim red light. The apparatus consisted of an open topped box (40cm long X 27 cm wide X 27 cm high) divided into a small area (2/5) and a large area (3/5) by a partition that extended 20 cm above the walls. There was a 7.5 X 7.5 cm opening in the partition at floor level. The small compartment was painted black and the large compartment white. The floor of each compartment was marked into 9 cm squares. The white compartment was illuminated by a 100 W tungsten bulb 17 cm above the box and the black compartment by a similarly placed 60 W red bulb.
Animals that had been injected with drug or vehicle were placed individually into the centre of the white area and their behavior observed during a 5 minute period by remote video recording. Four behavioral parameters were recorded every minute: the number of exploratory rears in the white and black sections, the number of line crossings in the black and white sections, the number of transitions between the two sections and the time spent in the black and white sections. Animals were tested in treatment groups of 8-10 and vehicle controls were run on each test day. Data were analysed by ANOVA and Dunnetts test.

Sprague Dawley rats = assay: Exploratory/locomotor activity in automated activity cages (novel environment); format: in vivo
Description: B. The effects of CCK-8 and compound A on the exploratory behavior of the rat were examined in automated activity cages and by direct observation. It is known that exogenous CCK-8 decreases exploratory behavior in rats in a novel environment by accelerating the process of habituation. [See Crawley, Pharm. Biochem & Behav. 20, 23-27 (1984).]
Expt 1. Male Sprague Dawley rats were injected ([…].) with CCK-8 and immediately placed in automated activity cages. Activity was measured for 30 minutes past injection.
Expt 2. Male SD rats were injected (s.c.) with the CCK antagonist compound A (0.0001-10mg/kg) and immediately placed in the automated activity cages. […] As the anxiolytic drug chlordiazepoxide also increases spontaneous locomotor activity in rats in a novel environment [(McElroy et al. Psychopharm. 85: 224-226 (1985)] these findings are consistent with an anxiolytic action of Compound A useful in the treatment of panic disorder.

rats = assay: Exploration in a novel environment by direct observation (perspex cage); format: in vivo; settings: 0.1 mg/kg, 15 minute period 15 minutes after treatment
Description: Expt 3. In order to assess further the effect of Compound A on exploration in a novel environment, the motoric hehaviors of rats placed in a perspex cage was recorded by direct observation for a 15 minute period 15 minutes after treatment with Compound A.
Experimenters (unaware of the treatments the animals had received) recorded the frequency and duration of rearing, sniffing, grooming and cage crossing using a keypad interfaced to a BBC microcomputer.

Compound `CN1C(=O)C(NC(=O)c2cc3ccccc3[nH]2)N=C(c2ccncc2)c2ccccc21` (racemic) [Example 17, 1,3-Dihydro-3(RS)-(2-indolecarbonylamino)-1-methyl-5-(4-pyridyl)-2H-1,4-benzodiazepin-2-one] has an IC50 (CCK Receptor (Pancreas)) of 0.0068 µM and an IC50 (Gastrin Receptor) of 0.66 µM.

`CN1C(=O)C(NC(=O)c2cc3ccccc3[nH]2)N=C(c2ccccn2)c2ccccc21` (racemic) [Example 24, (RS)-N-(2,3-Dihydro-1-methyl-2-oxo-5-(2-pyridyl)-1H-1,4-benzodiazepin-3-yl)-1H-indole-2-carboxamide] showed an IC50 (CCK Receptor (Pancreas)) of 0.00037 µM and an IC50 (Gastrin Receptor) of 0.16 µM.

In the case of `Cc1cccc(NC(=O)NC2N=C(c3ccccn3)c3ccccc3N(CC(C)C)C2=O)c1` (racemic) [Example 25, (RS)-N-(2,3-Dihydro-1-(2-methylpropyl)-2-oxo-5-(2-pyridyl)-1H-1,4-benzodiazepin-3-yl)-N′-(3-methyl-phenyl)-urea], the IC50 (CCK Receptor (Pancreas)) is reported as 0.49 µM and the IC50 (Gastrin Receptor) is reported as 0.00067 µM.

Work on `CN1C(=O)C(NC(=O)Nc2ccc3c(c2)CCC3)N=C(c2ccccc2)c2ccccc21` (racemic) [Example 26, (RS)-N-(2,3-dihydro-1-methyl-2-oxo-5-phenyl-1H-1,4-benzodiazepin-3-yl)-N′-(5-indanyl)urea] yielded an IC50 (CCK Receptor (Pancreas)) of 0.075 µM and an IC50 (Gastrin Receptor; guinea pig gastric glands, 125I-gastrin, 25°C 30 minutes, read-out: IC50(µM) 125I-Gastrin Gastric Glands) of 0.0019 µM.

For `Cc1cccc(NC(=O)N[C@@H]2N=C(c3ccccc3)c3ccccc3N(C)C2=O)c1` [Example 5, (R)-N-(2,3-Dihydro-1-methyl-2-oxo-5-phenyl-1H-1,4-benzodiazepin-3-yl)-N′-(3-methylphenyl)-urea], the IC50 (CCK Receptor (Pancreas); rat pancreas membranes, 125I-CCK-33, 37°C 30 minutes, read-out: IC50(µM) 125I-CCK Pancreas) was 0.28 µM, the active dose range (DBA2 mice) was 0.005 to 0.05 µg/kg and the “difference in time spent in the black and white side” value (DBA2 mice; dose of 0.005 ug/kg) was “decreased”. For the same compound, the “preference for rearing in the black side” value (DBA2 mice; dose of 0.05 ug/kg) was “abolished”.

`Cc1cccc(NC(=O)N[C@H]2N=C(c3ccccc3)c3ccccc3N(C)C2=O)c1` [Example 11, (S)-N-(2,3-Dihydro-1-methyl-2-oxo-5-phenyl-1H-1,4-benzodiazepin-3-yl)-N′-(3-methylphonyl)-urea] gave an IC50 (CCK Receptor (Pancreas)) of 0.0041 µM and an IC50 (Gastrin Receptor) of 0.092 µM.

`CN1C(=O)[C@@H](NC(=O)c2cc3ccccc3[nH]2)N=C(c2ccccc2)c2ccccc21` [Example 16, 3(S)-(-)-1,3-Dihydro-3-(2-indolecarbonylamino)-1-methyl-5-phenyl-2H-1,4-benzodiazepin-2-one] was tested, and the “preference for locomotion (line crossings) in the black side” value (DBA2 mice; mice, 0.5, 5.0 and 500 ug/kg) was “abolished”, the “difference in time spent in the black and white side” value (DBA2 mice; 5.0 and 500 ug/kg) was “abolished” and the active dose range (DBA2 mice) was 0.05 to 5.0 µg/kg. The “preference for rearing in the black side” value (DBA2 mice; doses of 0.05, 0.5, 5.0 and 500 ug/kg) was “significantly decreased”, the “habituation and period of exploratory activity” value (Sprague Dawley rats; s.c., 0.0001-10mg/kg, F(6,124) = 2.54, p<0.05) was “delayed habituation and prolonged the period of exploratory activity” and the levels of activity (Sprague Dawley rats; s.c., 0.1 mg/kg, at 25 minutes, p<0.01) was “significantly above controls”. The “activity, higher and lower doses” value (Sprague Dawley rats; s.c., doses higher and lower than 0.1 mg/kg, at 25 minutes, bell-shaped dose response curve) was “no significant effect”, the Sniffing (rats; P<0.01) was “significantly increased” and the rearing (rats; P<0.01) was “significantly increased”. For the same compound, the cage crossing (rats; P<0.05) was “significantly increased”.

Compound `CN1C(=O)[C@H](NC(=O)Nc2cc3c(cn2)[nH]c2ccccc23)N=C(c2ccccc2)c2ccccc21` [Example 22] has an IC50 (CCK Receptor (Pancreas)) of 0.0044 µM and an IC50 (Gastrin Receptor) of 1.3 µM.

`CN1C(=O)[C@@H](NC(=O)c2cc3cc(O)ccc3[nH]2)N=C(c2ccccc2)c2ccccc21` [Example 27, 1,3-Dihydro-3-(5-hydroxyindole-2-carbonylamino)-1-methyl-5-phenyl-2H-1,4-benzodiapin-2-one] gave an IC50 (CCK Receptor (Pancreas)) of 0.0033 µM.

With “CCK-8 (DYMGWMDF; ends and bridges not checked; UniProt P06307 96-103, looked up) [reference compound]” the locomotor activity (Sprague Dawley rats; i.p., 0.5-16µg/kg, 30 minutes post injection, F(6,87) = 3.21 (p<0.01)) was “dose-dependently decreased”.
